Calls of active or inactive are those of the source. The calls are words filed in the database; no cut-off is given here. Some results are limits rather than exact numbers.

Data set [1] has as its target T1, Serine/threonine-protein kinase PAK 4 (Homo sapiens, UniProt O96013). The experiment in a line: Binding affinity to recombinant human N-terminal His6-tagged PAK4 kinase domain (300 to 591 residues) expressed in Escherichia coli BL21(DE3) cells at 50 uM by circular dichroism analysis. On the technique in general: CD spectra are sensitive to the conformation of chiral molecules.
Target sequence in this assay (O96013 whole entry, looked up, the tested form may be a part): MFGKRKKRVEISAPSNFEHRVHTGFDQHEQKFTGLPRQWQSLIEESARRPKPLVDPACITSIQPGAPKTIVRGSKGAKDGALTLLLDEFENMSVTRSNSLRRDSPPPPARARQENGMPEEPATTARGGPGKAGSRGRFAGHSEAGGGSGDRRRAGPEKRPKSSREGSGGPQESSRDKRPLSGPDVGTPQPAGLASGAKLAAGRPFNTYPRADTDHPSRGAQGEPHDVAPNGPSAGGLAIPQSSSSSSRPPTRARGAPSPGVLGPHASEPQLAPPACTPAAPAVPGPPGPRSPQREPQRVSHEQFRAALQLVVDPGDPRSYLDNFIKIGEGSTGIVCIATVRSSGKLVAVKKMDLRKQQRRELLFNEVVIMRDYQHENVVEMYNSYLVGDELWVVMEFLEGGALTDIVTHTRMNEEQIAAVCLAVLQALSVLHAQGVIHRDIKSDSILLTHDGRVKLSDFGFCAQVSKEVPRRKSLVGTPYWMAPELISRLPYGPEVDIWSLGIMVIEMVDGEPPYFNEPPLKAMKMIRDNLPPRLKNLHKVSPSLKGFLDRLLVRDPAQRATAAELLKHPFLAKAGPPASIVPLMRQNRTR

The target in data set [2] is T1, Serine/threonine-protein kinase PAK 4. Kind of data set: Inhibition of human PAK4 using myelin basic protein as substrate incubated for 40 mins by scintillation counting method in presence of gamma[33P]ATP.
Target sequence in this assay (O96013 whole entry, the tested form may be a part): as the sequence (O96013 whole entry, looked up, the tested form may be a part) above
In data set [3] the target is Aurora kinase B (Homo sapiens) (UniProt Q96GD4). Kind of data set: Inhibition of human recombinant Aurora-B expressed in sf9 cells using kemptide as substrate by radiometric assay in presence of gamma[32P]ATP.
Sequence of Aurora kinase B (Homo sapiens) (Q96GD4 whole entry): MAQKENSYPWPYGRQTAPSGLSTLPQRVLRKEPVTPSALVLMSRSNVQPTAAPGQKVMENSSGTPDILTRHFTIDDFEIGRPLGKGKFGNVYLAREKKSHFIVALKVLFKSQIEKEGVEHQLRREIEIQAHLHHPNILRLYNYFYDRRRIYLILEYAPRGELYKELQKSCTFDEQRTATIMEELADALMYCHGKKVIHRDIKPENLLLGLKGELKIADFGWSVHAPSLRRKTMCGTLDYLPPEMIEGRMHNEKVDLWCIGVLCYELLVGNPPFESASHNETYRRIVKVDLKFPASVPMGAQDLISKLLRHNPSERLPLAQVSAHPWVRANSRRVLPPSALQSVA
For data set [4], the target named is T2, Dual specificity tyrosine-phosphorylation-regulated kinase 2 (Homo sapiens) (UniProt Q92630).
T2 sequence (whole entry): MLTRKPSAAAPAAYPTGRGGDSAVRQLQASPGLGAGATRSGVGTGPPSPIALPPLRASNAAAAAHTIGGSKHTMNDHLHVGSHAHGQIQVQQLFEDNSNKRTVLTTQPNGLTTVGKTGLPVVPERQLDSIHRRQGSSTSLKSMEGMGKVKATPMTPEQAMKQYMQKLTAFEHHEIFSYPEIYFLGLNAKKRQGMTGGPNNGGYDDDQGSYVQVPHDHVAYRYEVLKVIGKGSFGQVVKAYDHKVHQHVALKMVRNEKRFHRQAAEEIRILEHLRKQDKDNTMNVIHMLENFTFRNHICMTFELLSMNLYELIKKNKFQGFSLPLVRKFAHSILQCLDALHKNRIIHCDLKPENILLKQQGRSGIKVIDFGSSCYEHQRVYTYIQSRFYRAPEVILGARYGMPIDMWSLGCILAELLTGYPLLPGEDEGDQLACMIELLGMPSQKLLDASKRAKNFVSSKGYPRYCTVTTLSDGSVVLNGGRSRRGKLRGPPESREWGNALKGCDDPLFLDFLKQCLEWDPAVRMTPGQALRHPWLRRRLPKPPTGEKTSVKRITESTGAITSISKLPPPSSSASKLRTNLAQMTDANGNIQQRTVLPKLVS
The experiment in a line: Inhibition of human DYRK2 by radiometric assay.

Data set [5] in a line: Solubility of compound. In kind it is physicochemical.
Data set [6] addresses T1, Serine/threonine-protein kinase PAK 4. The conditions noted are these: 50 uM.
Target sequence in this assay (O96013 whole entry, looked up, the tested form may be a part): as the sequence (O96013 whole entry, looked up, the tested form may be a part) above
Description: Binding affinity to PAK4 (unknown origin) assessed as change in melting temperature at 50 uM by circular dichroism analysis
Data set [7] has as its target T3, Aurora kinase C (Homo sapiens) (UniProt Q9UQB9).
T3 sequence (whole entry): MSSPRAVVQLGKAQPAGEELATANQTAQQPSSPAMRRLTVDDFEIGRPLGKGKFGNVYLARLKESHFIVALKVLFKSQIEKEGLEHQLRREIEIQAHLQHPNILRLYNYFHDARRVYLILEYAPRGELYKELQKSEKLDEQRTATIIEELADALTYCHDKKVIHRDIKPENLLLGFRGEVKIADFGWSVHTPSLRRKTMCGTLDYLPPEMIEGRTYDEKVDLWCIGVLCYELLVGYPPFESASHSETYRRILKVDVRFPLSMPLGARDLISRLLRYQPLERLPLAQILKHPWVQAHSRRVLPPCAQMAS
Kind of data set: Inhibition of human Aurora-C by radiometric assay.

In data set [8] the target is CDK4/Cyclin D3 (Homo sapiens) (UniProt P11802+P30281). The experiment in a line: Inhibition of human recombinant CDK4/Cyclin D3 expressed in sf21 cells using Rb (773 to 928 residues) as substrate by radiometric assay in presence of gamma[32P]ATP.
For data set [9], the target named is DNA-dependent protein kinase catalytic subunit (Homo sapiens) (UniProt P78527). Kind of data set: Inhibition of human DNA-PK by radiometric assay.
Sequence of DNA-dependent protein kinase catalytic subunit (Homo sapiens) (P78527 whole entry): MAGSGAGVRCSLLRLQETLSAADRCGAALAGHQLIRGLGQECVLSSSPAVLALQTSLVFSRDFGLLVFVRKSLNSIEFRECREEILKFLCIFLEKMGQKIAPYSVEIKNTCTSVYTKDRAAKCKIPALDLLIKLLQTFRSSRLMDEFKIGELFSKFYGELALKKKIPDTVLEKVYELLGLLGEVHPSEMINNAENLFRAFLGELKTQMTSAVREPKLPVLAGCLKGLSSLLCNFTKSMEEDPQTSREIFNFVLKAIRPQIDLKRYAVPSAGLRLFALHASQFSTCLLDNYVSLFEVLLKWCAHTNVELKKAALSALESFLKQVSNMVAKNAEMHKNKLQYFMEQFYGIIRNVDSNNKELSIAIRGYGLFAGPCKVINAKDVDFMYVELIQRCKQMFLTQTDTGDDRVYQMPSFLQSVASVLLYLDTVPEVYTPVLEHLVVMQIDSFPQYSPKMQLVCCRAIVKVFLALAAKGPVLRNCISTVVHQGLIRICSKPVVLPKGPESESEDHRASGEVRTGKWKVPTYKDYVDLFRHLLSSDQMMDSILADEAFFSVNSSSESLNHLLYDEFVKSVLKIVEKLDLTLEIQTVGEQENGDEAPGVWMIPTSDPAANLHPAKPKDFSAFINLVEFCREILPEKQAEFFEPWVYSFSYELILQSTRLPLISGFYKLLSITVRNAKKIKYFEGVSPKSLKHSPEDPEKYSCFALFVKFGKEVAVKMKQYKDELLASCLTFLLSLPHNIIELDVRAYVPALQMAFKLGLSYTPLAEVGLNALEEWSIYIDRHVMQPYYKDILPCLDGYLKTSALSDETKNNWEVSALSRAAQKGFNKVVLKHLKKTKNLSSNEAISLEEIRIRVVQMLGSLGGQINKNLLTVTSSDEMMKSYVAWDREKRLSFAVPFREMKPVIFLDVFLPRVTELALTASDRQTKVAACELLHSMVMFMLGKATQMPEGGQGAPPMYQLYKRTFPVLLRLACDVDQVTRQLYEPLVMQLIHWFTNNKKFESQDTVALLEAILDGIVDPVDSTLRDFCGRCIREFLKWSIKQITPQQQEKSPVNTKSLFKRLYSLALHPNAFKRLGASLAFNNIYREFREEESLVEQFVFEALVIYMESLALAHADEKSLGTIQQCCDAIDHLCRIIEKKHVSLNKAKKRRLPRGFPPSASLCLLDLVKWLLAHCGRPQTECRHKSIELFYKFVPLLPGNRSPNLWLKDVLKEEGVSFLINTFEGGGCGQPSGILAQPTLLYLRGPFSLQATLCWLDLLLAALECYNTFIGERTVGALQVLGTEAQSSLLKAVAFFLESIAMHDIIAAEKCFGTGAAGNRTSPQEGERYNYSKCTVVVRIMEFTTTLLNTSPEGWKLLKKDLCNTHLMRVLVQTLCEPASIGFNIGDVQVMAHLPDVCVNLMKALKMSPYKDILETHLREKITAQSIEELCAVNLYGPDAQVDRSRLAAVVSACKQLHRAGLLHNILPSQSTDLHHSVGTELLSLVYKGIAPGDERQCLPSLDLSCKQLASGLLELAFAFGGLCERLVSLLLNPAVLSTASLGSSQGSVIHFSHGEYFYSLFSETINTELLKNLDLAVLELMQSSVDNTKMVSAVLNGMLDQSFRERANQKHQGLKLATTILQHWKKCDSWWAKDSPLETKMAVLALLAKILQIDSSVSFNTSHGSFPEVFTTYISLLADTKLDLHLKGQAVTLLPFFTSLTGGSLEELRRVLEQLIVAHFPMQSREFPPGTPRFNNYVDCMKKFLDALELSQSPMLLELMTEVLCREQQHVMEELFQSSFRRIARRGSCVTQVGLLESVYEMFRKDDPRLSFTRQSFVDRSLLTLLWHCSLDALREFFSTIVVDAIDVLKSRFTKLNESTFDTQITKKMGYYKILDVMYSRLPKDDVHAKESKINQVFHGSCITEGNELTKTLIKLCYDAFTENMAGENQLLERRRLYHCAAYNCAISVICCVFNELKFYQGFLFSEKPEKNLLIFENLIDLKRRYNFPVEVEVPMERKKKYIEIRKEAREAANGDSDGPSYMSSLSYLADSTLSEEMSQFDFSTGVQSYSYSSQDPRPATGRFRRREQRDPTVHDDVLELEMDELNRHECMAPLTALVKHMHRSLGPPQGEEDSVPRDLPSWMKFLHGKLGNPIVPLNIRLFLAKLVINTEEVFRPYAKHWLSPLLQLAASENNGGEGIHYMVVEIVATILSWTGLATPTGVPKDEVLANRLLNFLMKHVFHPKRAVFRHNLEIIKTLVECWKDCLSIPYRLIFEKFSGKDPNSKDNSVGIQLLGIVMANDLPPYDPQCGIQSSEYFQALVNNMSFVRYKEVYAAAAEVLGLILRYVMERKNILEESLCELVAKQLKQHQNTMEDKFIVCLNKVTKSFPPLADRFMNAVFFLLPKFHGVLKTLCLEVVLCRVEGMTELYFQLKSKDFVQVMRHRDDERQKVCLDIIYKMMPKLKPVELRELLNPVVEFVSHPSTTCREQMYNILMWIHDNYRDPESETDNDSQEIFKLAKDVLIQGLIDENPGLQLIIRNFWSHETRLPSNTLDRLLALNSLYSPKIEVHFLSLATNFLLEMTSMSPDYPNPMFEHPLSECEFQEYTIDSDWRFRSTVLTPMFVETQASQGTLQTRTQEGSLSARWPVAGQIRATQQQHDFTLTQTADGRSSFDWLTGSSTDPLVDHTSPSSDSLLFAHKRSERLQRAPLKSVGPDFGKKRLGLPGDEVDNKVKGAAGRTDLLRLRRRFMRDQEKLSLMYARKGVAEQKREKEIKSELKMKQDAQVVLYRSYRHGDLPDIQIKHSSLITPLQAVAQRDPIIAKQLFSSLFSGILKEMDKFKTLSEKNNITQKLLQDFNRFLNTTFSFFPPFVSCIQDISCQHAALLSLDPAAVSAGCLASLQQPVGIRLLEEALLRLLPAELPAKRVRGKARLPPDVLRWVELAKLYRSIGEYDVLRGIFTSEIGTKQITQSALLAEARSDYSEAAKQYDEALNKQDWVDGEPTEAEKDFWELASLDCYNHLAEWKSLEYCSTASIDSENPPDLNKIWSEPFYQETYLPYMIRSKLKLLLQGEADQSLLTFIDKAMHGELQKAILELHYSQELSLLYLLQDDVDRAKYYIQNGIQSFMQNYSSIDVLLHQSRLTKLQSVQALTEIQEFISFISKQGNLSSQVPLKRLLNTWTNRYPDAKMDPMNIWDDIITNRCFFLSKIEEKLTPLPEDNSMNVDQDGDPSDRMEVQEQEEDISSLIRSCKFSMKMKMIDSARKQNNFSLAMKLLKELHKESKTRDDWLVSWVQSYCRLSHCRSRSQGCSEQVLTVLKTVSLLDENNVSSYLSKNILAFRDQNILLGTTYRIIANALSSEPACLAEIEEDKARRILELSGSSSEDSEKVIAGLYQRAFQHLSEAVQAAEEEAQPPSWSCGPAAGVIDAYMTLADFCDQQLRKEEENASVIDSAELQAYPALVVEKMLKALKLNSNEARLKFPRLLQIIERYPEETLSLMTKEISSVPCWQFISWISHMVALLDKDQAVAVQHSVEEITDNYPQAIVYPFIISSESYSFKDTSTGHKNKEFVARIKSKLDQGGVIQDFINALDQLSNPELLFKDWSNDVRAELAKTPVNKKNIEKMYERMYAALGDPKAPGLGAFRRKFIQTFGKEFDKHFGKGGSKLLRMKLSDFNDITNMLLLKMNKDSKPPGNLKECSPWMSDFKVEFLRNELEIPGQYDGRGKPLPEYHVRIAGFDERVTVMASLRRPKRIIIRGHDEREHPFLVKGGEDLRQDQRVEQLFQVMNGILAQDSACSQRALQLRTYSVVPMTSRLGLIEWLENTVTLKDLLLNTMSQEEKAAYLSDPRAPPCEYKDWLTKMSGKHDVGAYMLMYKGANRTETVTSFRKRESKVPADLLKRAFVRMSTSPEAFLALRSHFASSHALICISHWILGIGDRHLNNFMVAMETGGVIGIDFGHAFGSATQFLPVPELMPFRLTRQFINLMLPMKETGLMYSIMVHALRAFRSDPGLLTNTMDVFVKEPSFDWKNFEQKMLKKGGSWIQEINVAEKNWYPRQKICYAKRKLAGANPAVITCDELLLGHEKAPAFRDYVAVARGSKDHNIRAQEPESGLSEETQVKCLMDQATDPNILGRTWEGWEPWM

Turning to `Cc1nc(Nc2n[nH]c3c2CN(C(=O)N[C@H](CN(C)C)c2ccccc2)C3(C)C)c2sccc2n1`, the ΔTm (usually the shift of the melting midpoint relative to a reference) in data set [1] was determined as 16 °C.
Consider `COc1nc(NCCc2c[nH]c3ccccc23)nc(Nc2ccc3[nH]ncc3c2)n1`, for which, in [1], the ΔTm is 6 °C.
Consider `CC(C)c1nn(C)cc1-c1nc2cc(Br)cnc2[nH]1`, for which the half-inhibitory concentration (IC50) (commonly the point on the concentration scale where inhibition reaches its midpoint) in data set [2] worked out at 8.7 µM. The inhibition entry in data set [3] and in data set [7] was “Active” throughout. Besides, the inhibition entry in data set [4], in data set [8] and in data set [9] was “inactive” each time. The solubility – broadly, how much of the substance goes into solution per volume – in [5] was less than 100 µM. Further, in data set [6], the Tm came out at 48 °C.
